Reference: patent US20110076293A1, “TRIPTOLIDE DERIVATIVES FOR MODULATION OF APOPTOSIS AND IMMUNOSUPPRESSION” (priority 2002, published 2011)

How the values were obtained:
[1] = test system: Jurkat human T lymphocyte cell line; assay: Apoptosis assay (Annexin V) of compounds incubated with human serum; conditions: for Conversion, as relative ED50 compared to triptolide (%): incubation time in human serum 48 hours
Protocol: (§1) Compounds of formula I, as shown in Table 1 above and in the Examples, were assayed for their capacity to induce apoptosis in cells from the Jurkat human T lymphocyte cell line, after incubation with pooled human serum for varying periods of time at 37° C. (see Example 19). An ester prodrug, triptolide-14-succinate, designated PG490-88, was included for comparison. The extent of conversion to triptolide after such incubation was also independently determined by HPLC analysis.
The ED50 values (column 3) are calculated directly from the data in each experiment, and the % conversion values (column 4) are calculated as percent of the ED50 value produced by triptolide, designated PG490, incubated in the same plasma (i.e. in the same experiment).
A. Incubation of compounds with human serum. Pooled human serum was stored in aliquots at −80° C. Test compounds were added at 20 mM to thawed human serum in 1.5 ml microfuge tubes and incubated at 37° C. in a water bath for varying periods of time. The test samples were placed on ice until dilution for the bioassay. Controls consisted of the compounds incubated in complete tissue culture medium (RPMI 1640 medium plus 5% heat-inactivated fetal calf serum, 1% HEPES, 1% pen/strep, 1% glutamine) rather than human serum.
B. Apoptosis assay of compounds incubated with human serum. Test samples were diluted to 1 mM in complete tissue culture medium. Aliquots were placed in microculture plates and serial dilutions were prepared so that the final concentration would encompass the range of 1 to 10,000 nM with half-log increments. Cells from an exponentially expanding culture of the Jurkat human T lymphocyte cell line (#TIB-152 obtained from American Type Culture Collection, Manassas, Va.) were harvested, washed once by centrifugation and dilution in complete tissue culture medium, and diluted to a concentration of 1×10^6 cells/ml. A volume of 100 μl of Jurkat cells (1×10^5 cells) was added to wells containing 100 μl of the diluted compounds, and the plates were incubated at 37° C. in a 5% CO2 incubator. After 24 hours, the plates were centrifuged to pellet the cells, and the cells were washed twice with 2% heat-inactivated fetal calf serum in PBS. To each well, 500 ul of binding buffer was added according to the Annexin V assay procedure (BioVision, Inc., Mountain View, Calif.). Next, 5 μl of the fluorescein isothiocyanate (FITC) conjugate of Annexin V (BioVision, Inc.) was added to each well, followed by 5 minutes of incubation in the dark. In some assays, propidium iodide (BioVision, Inc.) was added at this stage to check for necrotic cells. The contents of the wells were individually transferred into test tubes, and apoptosis was analyzed using a FACSCalibur flow cytometer (BD Immunocytometry Systems, San Jose, Calif.). Cells positive for Annexin V binding were considered to be apoptotic, and the data were calculated as percent apoptotic cells.
(§2) C. Comparison of bioactivities after incubation of compounds in human serum. The data were plotted as the concentration of compound incubated in serum versus percent apoptotic cells. The concentration of compound inducing 50% apoptosis (ED50) was calculated from these dose response curves. […] This percentage conversion was used to compare the bioactivity of various compounds after incubation in human serum.

in vitro = assay: in vitro
Protocol: as §1
Prodrug conversions to triptolide as determined independently by HPLC are given in […].

[2] = test system: IL-2 production in Jurkat human T lymphocyte cells; assay: IL-2 production assay for activity of compounds incubated with human serum; conditions: for IC50: Homo sapiens, Jurkat, 48 h, IL-2 production in Jurkat cells after incubation with pooled human serum for 48 hours at 37° C.; for Conversion (%): percent of the IC50 value produced by triptolide (PG490) in the same experiment, human serum 48 hours
Protocol: Several compounds of formula I were analyzed for their capacity to inhibit IL-2 production in Jurkat human T lymphocyte cells, after incubation with pooled human serum for 48 hours at 37° C. (see Example 20). An ester prodrug, triptolide-14-succinate, designated PG490-88, was included for comparison.
The IC50 values (column 1) are calculated directly from the data in each experiment. The % conversion values (column 2) are calculated as the percent of the IC50 value produced by triptolide, designated PG490, incubated in the same plasma (i.e. in the same experiment).
A. IL-2 production assay for activity of compounds incubated with human serum. Test samples were diluted to 1 mM in complete tissue culture medium. […] Cells from an exponentially expanding culture of the Jurkat human T lymphocyte cell line (#TIB-152 obtained from American Type Culture Collection, Manassas, Va.) were harvested, washed once by centrifugation and dilution in complete tissue culture medium, and diluted to a concentration of 2×10^6 cells/ml. A volume of 50 μl of Jurkat cells (1×10^5 cells) was added to wells containing 100 μl of the diluted compounds, 50 μl of PMA (10 ng/ml) was added to each well, and the plates were incubated at 37° C. in a 5% CO2 incubator. After 24 hours, the plates were centrifuged to pellet the cells, 150 μl of supernatant was removed from each well, and the samples were stored at −20° C. The stored supernatants were analyzed for human IL-2 concentration using the Luminex 100 (Luminex Corporation, Austin, Tex.), Luminex microspheres coupled with anti-IL-2 capture antibody, and fluorochrome-coupled anti-IL-2 detection antibody. The data were expressed as ng/ml of IL-2.
as §2, with “B.” for “C.”, “IL-2 concentration.” for “percent apoptotic cells.”, “inducing a” for “inducing”, “decrease in the IL-2 concentration (IC50)” for “apoptosis (ED50)”

CC(C)[C@]12O[C@H]1[C@@H]1O[C@]13[C@]1(O[C@H]1C[C@H]1C4=C(CC[C@@]13C)C(=O)OC4)[C@@H]2OC(=O)OCC(=O)O [PG687, Triptolide 14-Hydroxycarbonylmethyl Carbonate]
Conversion, as relative ED50 compared to triptolide (%) [1]: 6% | max. conversion at 48 hr in human plasma by HPLC (in vitro; incomplete conversion to triptolide, 48 hr incubation): 10% | IC50 [2]: 61 nM | Conversion (%) [2]: 2%

CC(C)[C@]12O[C@H]1[C@@H]1O[C@]13[C@]1(O[C@H]1C[C@H]1C4=C(CC[C@@]13C)C(=O)OC4)[C@@H]2OC(=O)Oc1ccccc1 [PG676, Triptolide 14-Phenyl Carbonate]
EC50 ([1]; Homo sapiens, Jurkat, 48 h, read-out: ED50 (nM) in apoptosis assay after incubation with serum, incubation time in human serum 48 hours, 37° C.): 56 nM | Conversion, as relative ED50 compared to triptolide (%) [1]: 96% | half-life (in vitro; human, plasma): 15 min | IC50 [2]: 6 nM | Conversion (%) [2]: 84%
